Data on six compounds can be found in PMC4846820, “A single active catalytic site is sufficient to promote transport in P-glycoprotein” (Scientific Reports, 2016).

The structures appear in SMILES notation. Several values for one entry are separate records, joined by “and”; a condition that tells them apart may be missing. Equal values may be shown once. Read-outs that look alike come from different tables or passages of the source.

In data set [1] the test system is MDCK cells expressing single Walker A mutant Pgp. Put plainly: Cytotoxic effect of vinblastine, AlamarBlue assay. The format is cell-based, canine. The conditions noted are these: 72 h, single mutants. A general note: Alamar Blue is a resazurin reagent that responds to reducing activity.
Method: cells/well. 24 hours later vinblastine was added at different concentrations and the plates were
further incubated for 72 h at 37 °C. The cell viability was determined using the AlamarBlue
assay (Serotec, UK) measuring the 530/590 nm fluorescence intensity of the dye in an
automated microplate reader (BioTec Synergy HT, US). The fluorescence intensities of the
samples were normalized to the fluorescence of the vinblastine untreated control sample, and
plotted as a function of vinblastine concentration. The data points are means of eight parallel
samples (±SD) from a representative experiment out of three.
Data set [2] deals with T1, Wild-type Pgp (Homo sapiens, UniProt P08183).
Method: Permeabilized cells trapped in the presence of ATP/Mg^2+ (100 μM for wild-type and 500 μM for single Walker A mutants) and 0.5 mM Vi were washed 3 times with ice-cold PBS and incubated in the presence or absence of ATP and/or substrates (verapamil, vinblastine) at 37 °C. 500 μl aliquots containing 2 × 10^5 cells were taken at regular intervals and washed twice with 5 ml PBS. […] At the end of incubations the samples were washed three times with ice-cold PBS and kept on ice until measurement in the flow cytometer.
For data set [3], the target named is T1, Wild-type Pgp. Put plainly: Nucleotide trapping kinetics (BeFx or Vi), UIC2-A647 labeling. The conditions noted are these: for accumulation in the trapped complex: both in WT and single Walker A mutant Pgp variants.
Method: The transition state of Pgp was stabilized by the addition of ATP/Mg^2+ and vanadate (Vi) or BeFx at 37 °C. Permeabilized cells were incubated with 100 μM (for WT) or 500 μM (for K433M and K1076M) ATP/Mg^2+ and 0.5 mM Vi[70] or BeFx (200 μM BeSO4 and 1 mM NaF) in the presence or absence of substrates in PBS at 37 °C. 500 μl aliquots were taken at regular intervals and washed twice with 5 ml ice-cold PBS containing Vi or BeFx at the same concentrations that were applied previously during incubation. […] The UIC2-A647 fluorescence intensity of the samples (F) was plotted as a function of time (t). The t1/2 values representing the half-life of the UIC2-reactive Pgp conformation were calculated from an exponential fit of the data points according to the following equation:
Data set [4] concerns single Walker A mutant Pgps (K433M and K1076M). Briefly: UIC2 mAb labeling of permeabilized cells, single mutants taken together. The data set is classed as cell-based, human.
Method: (§1) Permeabilized cells (1 × 10^6 ml^−1) were pre-incubated for 20 min with nucleotides added in a broad concentration range and then further incubated for 30 min with 10 μg/ml A647-conjugated UIC2 monoclonal antibody (all at 37 °C). UIC2 mAb binding to Pgp is a reversible reaction in the presence of ATP/Mg^2+ (Supplementary Fig. S6), thus, UIC2 was applied at a quasi-saturating concentration (5Kd;UIC2; Supplementary Fig. S5) and the duration of the incubation period was sufficient to reach equilibrium binding of UIC2 (Supplementary Fig. S6).
(§2) To prevent ATP hydrolysis, ATP was added to permeabilized cells without Mg^2+ in the presence of 5 mM EDTA. Alternatively, ATP was replaced by the non-hydrolysable ATP analogue AMP-PNP/Mg^2+, or the experiment was conducted on ice. […] Following antibody labeling, samples were washed 3 times with ice-cold PBS and centrifuged for 7 min at 635 g at 4 °C. The UIC2-A647 fluorescence intensity of the cells was measured by flow cytometry and plotted as a function of the nucleotide concentration.
Data set [5] deals with T1, Wild-type Pgp. Put plainly: Recovery from the Vi-trapped post-hydrolysis state (UIC2 labeling). The conditions noted are these: data not shown.
The next data set addresses K433M Pgp (Homo sapiens, UniProt P08183, K433M). Briefly: UIC2 mAb labeling of permeabilized cells: apparent affinity of nucleotide binding. The conditions noted are these: 37 °C, Mg2+.
Another data set concerns the target K1076M Pgp (Homo sapiens, UniProt P08183, K1076M). Described as above. The conditions noted are these: 37 °C, Mg2+.
In data set [6] the target is T1, Wild-type Pgp. Briefly: UIC2 mAb labeling of permeabilized NIH 3T3 cells: apparent affinity of nucleotide binding.
Method: as §1, §2
In data set [7] the test system is single Walker A mutant Pgp (K433M, K1076M). Put plainly: Vinblastine-bodipy staining and 15D3-A647 co-localization in MDCK cells. The data set is classed as cell-based, human. The conditions noted are these: 2 mM vanadate. How it is done:
Cells were plated in 8-well Ibidi μ-Slide (Ibidi GmbH, Martinsried, Germany) two days before the experiments to obtain nearly confluent cultures. The samples were pre-incubated with the following agents: Na-azide (10 mM) and 2-deoxy D-glucose (8 mM), Vi (2 mM) or NEM (50 μM) for 30 min and then further incubated with 100 nM vinblastine-bodipy (VBL-BPY) and 30 μg/ml A647-conjugated 15D3 anti-Pgp antibody for another 30 min at 37 °C.
Cellular localization of Pgp and VBL-BPY staining was studied by a three-laser confocal laser scanning microscope (Olympus FluoView 1000 confocal microscope based on an inverted IX-81 stand with an UPlansAPo 60 × NA 1.35 oil immersion objective, Hamburg, Germany). […] Fluorescence intensities were detected in the spectral ranges of 500–530 nm, 555–655 nm and 655–755 nm, respectively. To assess the co-localization of VBL-BPY (green) and Alexa 647-conjugated 15D3 (red) fluorescence signals, single optical slices of apical membrane surfaces were recorded for double-labeled cells. The pattern and extent of co-localization in the sections were determined by using the cross-correlation scattergrams of the green and red pixels of the images. Co-localization indices were determined from 30–50 cells (in three independent experiments). […]

For data set [8], the target named is double Walker A mutant Pgp (Homo sapiens, UniProt P08183, K1076M/K433M). The conditions noted are these: apical membrane, MDCK cells, 100 nM VBL-BPY.
Method: The pattern and extent of co-localization in the sections were determined by using the cross-correlation scattergrams of the green and red pixels of the images. Co-localization indices were determined from 30–50 cells (in three independent experiments). The Pearson’s co-localization index (CI) provides a reliable estimate on the extent of fluorescence co-localization: CI values close to zero indicate no or a very low degree, while CI ≥ 0.5 reflects a high degree of co-localization, whereas the CI = 1 value would correspond to a full overlap between the two colours in each pixel of the image.
The target of data set [9] is T1, Wild-type Pgp. Put plainly: VBL-BPY binding in permeabilized NIH 3T3 cells (confocal microscopy). The conditions noted are these: 5 mM AMP-PNP.
Method: Cells permeabilized by Staphylococcus alpha toxin (a) or Streptolysin O (b) were treated with different concentrations of CsA, ATP/Mg^2++ vanadate (Vi) or AMP-PNP/Mg^2+ followed by co-staining with VBL-BPY and 15D3-A647. The ratio of the VBL-BPY and 15D3-A647 fluorescence intensity was determined in pixels representing the plasma membrane, selected on the basis of 15D3-A647 fluorescence intensity exceeding the threshold of 300. Nucleotide-treated samples were compared to permeabilized ATP-depleted cells (0 mM nucleotide); the values are means ± SD of three independent experiments (***P < 0.001).

T1 sequence (P08183 whole entry): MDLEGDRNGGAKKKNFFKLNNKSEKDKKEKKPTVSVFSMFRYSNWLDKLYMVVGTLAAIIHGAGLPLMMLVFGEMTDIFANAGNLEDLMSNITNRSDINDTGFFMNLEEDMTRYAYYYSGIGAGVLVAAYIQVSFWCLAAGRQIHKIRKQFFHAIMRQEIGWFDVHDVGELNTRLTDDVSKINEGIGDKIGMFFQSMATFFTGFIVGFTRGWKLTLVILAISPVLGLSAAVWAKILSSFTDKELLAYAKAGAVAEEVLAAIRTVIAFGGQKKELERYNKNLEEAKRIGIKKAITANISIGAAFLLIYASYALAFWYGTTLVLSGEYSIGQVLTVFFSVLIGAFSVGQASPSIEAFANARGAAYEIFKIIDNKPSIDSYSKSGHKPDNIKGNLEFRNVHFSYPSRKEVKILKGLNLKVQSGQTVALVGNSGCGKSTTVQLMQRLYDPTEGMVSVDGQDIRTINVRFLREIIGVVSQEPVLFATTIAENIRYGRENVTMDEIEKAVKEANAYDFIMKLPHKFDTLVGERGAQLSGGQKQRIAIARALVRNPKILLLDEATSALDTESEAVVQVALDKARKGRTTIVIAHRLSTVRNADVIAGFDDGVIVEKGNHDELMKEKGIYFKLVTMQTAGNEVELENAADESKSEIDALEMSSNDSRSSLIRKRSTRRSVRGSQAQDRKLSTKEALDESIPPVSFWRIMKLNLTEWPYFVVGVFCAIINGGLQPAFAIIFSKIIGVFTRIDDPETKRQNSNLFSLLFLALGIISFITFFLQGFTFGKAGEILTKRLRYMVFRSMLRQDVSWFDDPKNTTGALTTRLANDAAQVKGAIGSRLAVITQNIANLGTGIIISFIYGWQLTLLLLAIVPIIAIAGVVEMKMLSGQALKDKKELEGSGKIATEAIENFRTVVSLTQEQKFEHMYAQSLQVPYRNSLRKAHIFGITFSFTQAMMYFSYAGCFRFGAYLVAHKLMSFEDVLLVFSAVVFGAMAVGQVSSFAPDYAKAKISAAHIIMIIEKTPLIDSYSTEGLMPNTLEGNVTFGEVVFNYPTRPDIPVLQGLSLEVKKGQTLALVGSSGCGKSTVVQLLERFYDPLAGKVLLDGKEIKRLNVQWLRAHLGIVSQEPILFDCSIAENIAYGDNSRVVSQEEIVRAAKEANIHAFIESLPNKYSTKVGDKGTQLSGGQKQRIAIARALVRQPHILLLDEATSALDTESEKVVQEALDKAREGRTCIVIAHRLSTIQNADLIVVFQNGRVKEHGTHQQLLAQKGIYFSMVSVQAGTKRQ
K433M Pgp, sequence (P08183 whole entry K433M): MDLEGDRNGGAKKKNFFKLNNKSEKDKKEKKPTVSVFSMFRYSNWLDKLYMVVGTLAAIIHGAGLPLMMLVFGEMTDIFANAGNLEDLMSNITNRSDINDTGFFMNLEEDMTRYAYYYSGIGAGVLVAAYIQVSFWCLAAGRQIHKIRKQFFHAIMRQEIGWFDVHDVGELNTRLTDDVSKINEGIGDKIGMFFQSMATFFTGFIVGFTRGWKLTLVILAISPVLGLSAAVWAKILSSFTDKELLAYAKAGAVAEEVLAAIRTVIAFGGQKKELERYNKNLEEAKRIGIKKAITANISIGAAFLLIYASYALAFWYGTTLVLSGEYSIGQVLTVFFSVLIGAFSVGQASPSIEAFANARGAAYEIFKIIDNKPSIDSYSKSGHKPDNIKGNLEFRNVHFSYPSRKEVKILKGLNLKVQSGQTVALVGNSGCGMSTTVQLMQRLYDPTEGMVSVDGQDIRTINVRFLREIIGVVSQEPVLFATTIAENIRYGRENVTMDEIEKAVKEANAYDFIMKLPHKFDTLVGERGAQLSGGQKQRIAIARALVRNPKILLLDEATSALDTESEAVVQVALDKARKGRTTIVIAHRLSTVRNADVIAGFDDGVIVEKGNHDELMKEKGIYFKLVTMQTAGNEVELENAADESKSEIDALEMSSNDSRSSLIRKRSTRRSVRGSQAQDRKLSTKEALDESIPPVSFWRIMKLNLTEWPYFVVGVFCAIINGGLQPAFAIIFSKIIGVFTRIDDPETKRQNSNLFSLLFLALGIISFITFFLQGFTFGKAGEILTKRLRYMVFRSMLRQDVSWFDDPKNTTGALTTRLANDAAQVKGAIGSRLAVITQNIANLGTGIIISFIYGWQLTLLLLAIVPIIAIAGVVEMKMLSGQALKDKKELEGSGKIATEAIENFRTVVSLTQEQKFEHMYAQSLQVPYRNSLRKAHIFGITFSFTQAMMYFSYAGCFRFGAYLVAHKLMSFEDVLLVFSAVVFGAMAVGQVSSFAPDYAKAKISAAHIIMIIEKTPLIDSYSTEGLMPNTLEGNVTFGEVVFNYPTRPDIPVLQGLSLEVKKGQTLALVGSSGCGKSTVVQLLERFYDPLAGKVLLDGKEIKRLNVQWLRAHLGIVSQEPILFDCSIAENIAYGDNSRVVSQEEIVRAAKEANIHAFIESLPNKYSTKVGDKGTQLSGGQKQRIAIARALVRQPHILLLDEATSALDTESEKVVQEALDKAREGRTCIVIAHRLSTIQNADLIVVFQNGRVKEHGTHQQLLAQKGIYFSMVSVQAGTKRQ
K1076M Pgp, sequence (P08183 whole entry K1076M): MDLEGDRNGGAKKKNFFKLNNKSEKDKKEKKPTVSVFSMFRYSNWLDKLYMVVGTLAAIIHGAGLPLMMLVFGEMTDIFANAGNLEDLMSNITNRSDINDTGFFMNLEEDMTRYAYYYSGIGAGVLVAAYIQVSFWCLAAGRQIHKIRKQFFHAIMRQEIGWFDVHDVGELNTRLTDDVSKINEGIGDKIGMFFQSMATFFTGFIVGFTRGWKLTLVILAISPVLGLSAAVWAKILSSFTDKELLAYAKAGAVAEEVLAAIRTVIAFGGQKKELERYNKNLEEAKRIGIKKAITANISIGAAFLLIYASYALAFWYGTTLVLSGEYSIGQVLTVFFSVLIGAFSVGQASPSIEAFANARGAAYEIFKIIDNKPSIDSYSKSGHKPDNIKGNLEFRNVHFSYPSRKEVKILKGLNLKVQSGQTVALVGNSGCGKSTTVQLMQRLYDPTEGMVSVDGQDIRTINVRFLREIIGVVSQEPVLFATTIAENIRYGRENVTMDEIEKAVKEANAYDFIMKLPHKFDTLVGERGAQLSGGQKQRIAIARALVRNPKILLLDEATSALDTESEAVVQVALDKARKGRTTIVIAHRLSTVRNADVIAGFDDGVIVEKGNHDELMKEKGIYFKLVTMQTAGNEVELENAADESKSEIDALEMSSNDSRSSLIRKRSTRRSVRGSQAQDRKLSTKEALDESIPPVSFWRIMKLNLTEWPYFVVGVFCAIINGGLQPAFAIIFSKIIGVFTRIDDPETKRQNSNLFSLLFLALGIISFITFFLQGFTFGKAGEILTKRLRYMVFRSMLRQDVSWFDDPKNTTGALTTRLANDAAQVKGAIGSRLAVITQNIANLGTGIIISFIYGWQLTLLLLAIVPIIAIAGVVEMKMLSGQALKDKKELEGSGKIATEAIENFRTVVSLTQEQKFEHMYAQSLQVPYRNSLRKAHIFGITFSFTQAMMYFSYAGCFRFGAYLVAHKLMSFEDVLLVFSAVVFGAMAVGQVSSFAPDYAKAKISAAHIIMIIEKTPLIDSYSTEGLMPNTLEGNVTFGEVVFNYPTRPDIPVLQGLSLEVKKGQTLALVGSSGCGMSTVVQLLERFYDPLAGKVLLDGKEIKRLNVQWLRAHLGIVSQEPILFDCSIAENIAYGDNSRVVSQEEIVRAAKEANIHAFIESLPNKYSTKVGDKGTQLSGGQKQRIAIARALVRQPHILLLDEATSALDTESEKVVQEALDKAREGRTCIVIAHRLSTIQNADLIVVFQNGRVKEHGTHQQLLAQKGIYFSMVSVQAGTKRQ
double Walker A mutant Pgp, sequence (P08183 whole entry K433M/K1076M): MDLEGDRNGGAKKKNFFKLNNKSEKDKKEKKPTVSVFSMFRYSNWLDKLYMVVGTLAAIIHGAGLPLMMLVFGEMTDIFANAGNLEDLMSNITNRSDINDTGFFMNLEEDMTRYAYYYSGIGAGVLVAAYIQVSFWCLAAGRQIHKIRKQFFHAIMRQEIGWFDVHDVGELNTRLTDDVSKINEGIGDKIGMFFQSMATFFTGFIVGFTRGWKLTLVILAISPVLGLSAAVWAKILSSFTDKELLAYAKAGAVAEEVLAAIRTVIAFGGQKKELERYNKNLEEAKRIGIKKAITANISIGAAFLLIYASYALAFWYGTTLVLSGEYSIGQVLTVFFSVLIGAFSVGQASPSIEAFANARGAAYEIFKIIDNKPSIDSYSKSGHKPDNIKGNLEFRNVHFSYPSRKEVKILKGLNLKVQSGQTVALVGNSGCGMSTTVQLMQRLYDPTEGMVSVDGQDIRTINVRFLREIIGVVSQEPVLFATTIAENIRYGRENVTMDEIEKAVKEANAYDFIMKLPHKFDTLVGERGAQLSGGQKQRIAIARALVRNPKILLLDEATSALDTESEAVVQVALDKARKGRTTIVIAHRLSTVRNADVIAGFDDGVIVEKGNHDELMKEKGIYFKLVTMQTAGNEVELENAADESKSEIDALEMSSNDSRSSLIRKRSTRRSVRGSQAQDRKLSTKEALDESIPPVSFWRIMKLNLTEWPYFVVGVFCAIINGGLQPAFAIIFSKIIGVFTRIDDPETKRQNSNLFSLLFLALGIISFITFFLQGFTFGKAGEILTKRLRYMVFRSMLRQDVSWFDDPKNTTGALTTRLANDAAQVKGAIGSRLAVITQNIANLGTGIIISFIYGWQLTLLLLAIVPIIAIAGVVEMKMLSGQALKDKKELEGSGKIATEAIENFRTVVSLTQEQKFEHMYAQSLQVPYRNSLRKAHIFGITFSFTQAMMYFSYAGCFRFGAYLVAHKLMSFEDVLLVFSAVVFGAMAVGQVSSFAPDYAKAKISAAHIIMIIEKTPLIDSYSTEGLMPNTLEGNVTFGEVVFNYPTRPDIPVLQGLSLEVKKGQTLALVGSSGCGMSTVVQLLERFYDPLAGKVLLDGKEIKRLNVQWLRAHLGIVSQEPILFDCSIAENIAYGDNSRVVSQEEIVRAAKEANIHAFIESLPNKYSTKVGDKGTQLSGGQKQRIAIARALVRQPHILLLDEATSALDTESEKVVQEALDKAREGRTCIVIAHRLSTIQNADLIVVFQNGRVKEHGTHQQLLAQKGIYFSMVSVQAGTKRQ
Method for K1076M Pgp: as §1, §2
Method for K433M Pgp: as §1, §2

Regarding `CC[C@]1(O)C[C@@H]2CN(CCc3c([nH]c4ccccc34)[C@@](C(=O)OC)(c3cc4c(cc3OC)N(C)[C@H]3[C@@](O)(C(=O)OC)[C@H](OC(C)=O)[C@]5(CC)C=CCN6CC[C@]43[C@@H]65)C2)C1` [vinblastine], the “resistance against the cytotoxic effect of vinblastine” value in data set [1] is “conferred resistance”. Further, the “effect on release of the tightly bound nucleotide from the Vi-trapped complex” value at Wild-type Pgp [2] is given as “not influenced”. In addition, the “accumulation in the trapped complex” value on Wild-type Pgp [3] is given as “accelerated”. Besides, the “apparent affinity for ATP in the presence of substrate” value on Wild-type Pgp [3] (up to 200 μM vinblastine, BeFx, 20 min, 37 °C) is recorded as “did not change”.

Usually Km stands for the substrate concentration at which the rate is half of its maximum. What is called Hill slope is a measure of the steepness of the concentration-response curve. With `Nc1ncnc2c1ncn2[C@@H]1O[C@H](COP(=O)(O)OP(=O)(O)OP(=O)(O)O)[C@@H](O)[C@H]1O` [ATP], the “fraction of UIC2 label persisting in saturating ATP” value in data set [4] (10 μg/ml UIC2) was ~ 50%. Besides, the “KA (apparent affinity for competing UIC2 labeling)” value in data set [4] (at [UIC2] about 5Kd;UIC2) was ~2.5 mM. In addition, the Kd in data set [4] (estimated with Eq. 7 of the kinetic model, read-out: Kd;ATP, dissociation constant of ATP from inward-facing Pgp) was ~5000 µM; on Wild-type Pgp [6] (read-out: Kd;ATP, dissociation constant of ATP from inward-facing Pgp, estimated with Eq. 7 of the kinetic model from KA and T2/T1;min), ~700 µM. Further, the Km in data set [4] (from Eq. 3 of the kinetic model, read-out: predicted KM for ATP-hydrolysis and substrate transport in the absence of UIC2) is ~700 µM; at Wild-type Pgp [6] (read-out: predicted KM for ATP-hydrolysis and substrate transport in the absence of UIC2, from Eq. 3 of the kinetic model), ~60 µM. In [4] (relative to WT), the “decrease in apparent affinity for ATP of the single mutants” value is ~ 10 fold. In addition, on Wild-type Pgp [5], the “effect on release of the tightly bound nucleotide from the Vi-trapped complex” value is listed as “not influenced”. In addition, the Hill slope at K433M Pgp was 0.90 ± 0.32; at K1076M Pgp, 0.89 ± 0.33; on Wild-type Pgp [6] (4 °C, Mg2+) it was 0.66 ± 0.17; at Wild-type Pgp [6] (37 °C, Mg2+) it was 0.77 ± 0.20; on Wild-type Pgp [6] (37 °C, no Mg2+), 1.60 ± 0.22. Further, the “KA (apparent nucleotide affinity) for competing UIC2 labeling” value is 2.08 ± 1.04 mM at K433M Pgp; 2.03 ± 0.91 mM at K1076M Pgp; 2.70 ± 1.83 mM at Wild-type Pgp [6] (4 °C, Mg2+); 0.25 ± 0.16 mM and 0.25 mM on Wild-type Pgp [6] (37 °C, Mg2+, 10 μg/ml UIC2); 1.92 ± 0.33 mM on Wild-type Pgp [6] (37 °C, no Mg2+).

For `COC(=O)c1ccccc1-c1c2ccc(=N)cc-2oc2cc(N)ccc12` [rhodamine 123], on Wild-type Pgp [3], the “accumulation in the trapped complex” value was “accelerated”.

In the case of `[O]=[V]([O-])([O-])[O-]` [Vi, orthovanadate], in data set [4] (ATP/Mg2+, 37 °C), the “increase in the apparent affinity of the single mutants to ATP on addition of vanadate” value is on record as 5–10 fold. The “effect on VBL-BPY binding to single Walker A mutants” value in [7] is “fully suppressed”. Besides, on Wild-type Pgp [3] (n = 6, Pgp variant not given), the “t1/2 of Vi trapping” value came out at 3.92 ± 0.87 min. At Wild-type Pgp [6] (ATP hydrolysis prevented (Fig. 1b-d)), the “effect of Vi on apparent affinity” value is on record as “not influenced at all”. Further, the “effect of vanadate on apparent affinity” value on Wild-type Pgp [6] (hydrolysis conditions: 37 °C, ATP/Mg2+) is “increased the apparent affinity”.

As to `CCC1(O)CC2CN(CCc3c([nH]c4ccccc34)C(C(=O)OC)(c3cc4c(cc3OC)N(C)C3C(O)(C(=O)OC)C(OC(=O)CCC5=[N+]6C(=Cc7c(C)cc(C)n7[B-]6(F)F)C=C5)C5(CC)C=CCN6CCC43C65)C2)C1` (stereo not drawn) [VBL-BPY, BODIPY FL vinblastine], the “Pearson's cross-correlation coefficient between VBL-BPY and 15D3 anti-Pgp antibody signals” value in data set [8] is reported as ~ 0.8.

On to `Nc1ncnc2c1ncn2[C@@H]1O[C@H](COP(=O)(O)OP(=O)(O)NP(=O)(O)O)[C@@H](O)[C@H]1O` [AMP-PNP], for which the “co-localization of VBL-BPY and Pgp” value on Wild-type Pgp [9] is reported as “significant decrease”. The Hill slope is 2.06 ± 0.29 on K433M Pgp; 1.68 ± 0.23 on K1076M Pgp; 1.75 ± 0.34 on Wild-type Pgp [6] (37 °C, Mg2+). Also, the “KA (apparent nucleotide affinity) for competing UIC2 labeling” value came to 3.40 ± 1.42 mM on K433M Pgp; 3.01 ± 0.92 mM on K1076M Pgp; 0.27 ± 0.14 mM on Wild-type Pgp [6] (37 °C, Mg2+, 10 μg/ml UIC2).
